Laboratory results: patent publication US20190175691A1, “METHODS FOR DETECTING AND MODULATING THE EMBRYONIC-FETAL TRANSITION IN MAMMALIAN SPECIES” (BioTime, Inc., priority 2016, published 2019)
Starred links: 1 amine or outer side, 2 acyl side, 3 side chain; linkers in the order of their positions; H or OH if unused. Positions of bridges follow the written chain, without caps; N, C: chain ends. Non-standard residues stand in square brackets, D forms with d. Residues, ends and D or L forms follow the SMILES beside them. Chains are numbered I, II in the order given. Actinocin(9to1) = Cc1c2oc3c(C)ccc(C(=O)[*:1])c3nc-2c(C(=O)[*:2])c(N)c1=O; NMeV = CN[C@H](C(=O)O)C(C)C; Sar = CNCC(=O)O

Assays:
Format in all cases: cell-based
COX7A1 transcript [1] = experiment: Screen for iCM factors: increase of COX7A1 transcript in cancer cell lines; details: Lung (A549), breast (MCF7), and prostate (PC3) cancer cell lines
Excerpt: Lung (A549), breast (MCF7), and prostate (PC3) cancer cell lines were exposed to diverse factors including biologically active small molecules as well as RNAi directed to specific genes and the relative increase in levels of COX7A1 transcript was used as a marker of iCM.

COX7A1 transcript [2] = experiment: Screen for iTR factors: reduction of COX7A1 transcript in cancer cell lines; details: Lung (A549), breast (MCF7), and prostate (PC3) cancer cell lines
Excerpt: Values under cell lines represent proportional decreased values for COX7A1 transcript in the cell line.
Lung (A549), breast (MCF7), and prostate (PC3) cancer cell lines were exposed to diverse factors including biologically active small molecules as well as RNAi directed to specific genes and the relative reduction of levels of COX7A1 transcript was used as a marker of iTR.

[3] = test system: adult-derived MDW fibroblasts; experiment: Scratch test on confluent MDW fibroblast monolayer; details: MDW passage 5, 1.5 mm scratch, 24 hours; 0.5 mM valproic acid, 10 ng/mL AMH, 20 ng/mL GFER; control 20%
Method: The identification of the secreted protein iTR factors GFER and AMH as well as the agent valproic acid, provides a novel cocktail of factors to generate iTR in vitro as well as in vivo. To determine the effects of the factors, cultured adult-derived MDW fibroblasts as well as umbilical cord-derived MSCs (MSCwj) were treated with varying concentrations of the factors and the rate of growth and regrowth following a scratch test are performed.
(§1) The fibroblast line MDW (passage 5) is seeded in multiple wells of a 6 well plate and cultured to confluence. A 1.5 mm “scratch” was introduced onto the monolayer using a 200 ul pipette tip, thereby denuding the fibroblasts from the culture surface. Factors including 0.5 mM valproic acid, 10 ng/mL AMH, and 20 ng/mL GFER are added to the growth medium which as DMEM medium supplemented with 10% FBS. 24 hours later, the % of the denuded surface was determined by phase contrast microscopy. […] Due to the lability and diffusion of the factors when administered in vivo, the formulation of the factors alone or in combination in a hydrogel such as crosslinked hyaluronic acid or crosslinked hyaluronic acid and collagen provides a preferred method of delivering the factors to increase tissue regeneration in animals. Alternatively, umbilical cord-derived MSCs (MSCwj) and adult skin fibroblasts (MDW) each of which express fetal/adult markers such as COX7A1 are treated with the secreted form of GFER alone at concentrations of 0, 10.0 and 100 ng/mL in DMEM medium supplemented with 10% FBS an AMH

[4] = test system: MDW adult-derived skin fibroblasts; experiment: Illumina bead array expression of COX7A1 and COL1A1 in MDW fibroblasts; details: MDW passage 6-7, 6 days, mRNA for cMYC or SOX2 + 0.5 mM valproic acid
[5] = test system: umbilical cord-derived MSCs (MSCwj) and adult skin fibroblasts (MDW); experiment: Percent confluency after 80 hours with secreted GFER; details: secreted GFER 0, 10.0 and 100 ng/mL, DMEM 10% FBS
Method: as §1
d cultured for 80 hours and the % confluency is determined.

CC[C@@H]1C(=O)N(C)c2cnc(Nc3ccc(C(=O)NC4CCN(C)CC4)cc3OC)nc2N1C1CCCC1 [BI 2536]
COX7A1 expression (relative increase of COX7A1 transcript as marker of iCM) (COX7A1 transcript [1]): increased COX7A1 expression

CCn1cc(-c2ccnc3[nH]c(-c4cccc(CN(C)C)c4)cc23)c(-c2ccc(NC(=O)N(C)C)cc2)n1 [GSK1070916]
COX7A1 expression (relative reduction of COX7A1 transcript as marker of iTR) (COX7A1 transcript [2]): reduce COX7A1 expression

O=C(O)[C@]1(Cc2cccc(Nc3nccs3)n2)CC[C@@H](Oc2cccc(Cl)c2F)CC1 [MK-5108]
COX7A1 expression (relative reduction of COX7A1 transcript as marker of iTR) (COX7A1 transcript [2]): reduce COX7A1 expression

CCc1c2c(nc3ccc(O)cc13)-c1cc3c(c(=O)n1C2)COC(=O)[C@]3(O)CC [SN-38]
COX7A1 expression (relative increase of COX7A1 transcript as marker of iCM) (COX7A1 transcript [1]): increased COX7A1 expression

CO[C@H]1/C=C\C=C(/C)C(=O)NC2=CC(=O)C(NCCN(C)C)=C(C[C@@H](C)C[C@H](OC)[C@H](O)[C@@H](C)/C=C(\C)[C@@H]1OC(N)=O)C2=O [alvespimycin]
COX7A1 expression (relative reduction of COX7A1 transcript as marker of iTR) (COX7A1 transcript [2]): reduce COX7A1 expression

CN1CC[C@H](c2c(O)cc(O)c3c(=O)cc(-c4ccccc4Cl)oc23)[C@H](O)C1 [alvocidib]
COX7A1 expression (relative increase of COX7A1 transcript as marker of iCM) (COX7A1 transcript [1]): increased COX7A1 expression

CC1(C)[C@@H](OC(=O)CCC(=O)O)CC[C@]2(C)[C@H]3C(=O)C=C4[C@@H]5C[C@@](C)(C(=O)O)CC[C@]5(C)CC[C@@]4(C)[C@]3(C)CC[C@@H]12 [carbenoxolone]
COX7A1 expression (relative increase of COX7A1 transcript as marker of iCM) (COX7A1 transcript [1]): increased COX7A1 expression

COc1cc(/C=C/C(=O)CC(=O)/C=C/c2ccc(O)c(OC)c2)ccc1O [curcumin]
COX7A1 expression (relative reduction of COX7A1 transcript as marker of iTR) (COX7A1 transcript [2]): reduce COX7A1 expression

Cc1c2oc3c(C)ccc(C(=O)N[C@@H]4C(=O)N[C@H](C(C)C)C(=O)N5CCC[C@H]5C(=O)N(C)CC(=O)N(C)[C@@H](C(C)C)C(=O)O[C@@H]4C)c3nc-2c(C(=O)N[C@@H]2C(=O)N[C@H](C(C)C)C(=O)N3CCC[C@H]3C(=O)N(C)CC(=O)N(C)[C@@H](C(C)C)C(=O)O[C@@H]2C)c(N)c1=O [dactinomycin] (I: T[dV]P[Sar][NMeV] / II: T[dV]P[Sar][NMeV]; ester I:1-I:C, II:1-II:C; linker I:N-II:N via Actinocin(9to1))
COX7A1 expression (relative increase of COX7A1 transcript as marker of iCM) (COX7A1 transcript [1]): increased COX7A1 expression

COc1cccc2c1C(=O)c1c(O)c3c(c(O)c1C2=O)C[C@@](O)(C(C)=O)C[C@@H]3O[C@H]1C[C@H](N)[C@H](O)[C@H](C)O1 [daunorubicin]
COX7A1 expression (relative increase of COX7A1 transcript as marker of iCM) (COX7A1 transcript [1]): increased COX7A1 expression

COc1cccc2c1C(=O)c1c(O)c3c(c(O)c1C2=O)C[C@@](O)(C(=O)CO)C[C@@H]3O[C@H]1C[C@H](N)[C@H](O)[C@H](C)O1 [doxorubicin]
COX7A1 expression (relative increase of COX7A1 transcript as marker of iCM) (COX7A1 transcript [1]): increased COX7A1 expression

Cc1onc(-c2c(F)cccc2Cl)c1C(=O)N[C@@H]1C(=O)N2[C@@H]1SC(C)(C)[C@@H]2C(=O)O [flucloxacillin]
COX7A1 expression (relative increase of COX7A1 transcript as marker of iCM) (COX7A1 transcript [1]): increased COX7A1 expression

COc1cc2ncnc(Nc3ccc(F)c(Cl)c3)c2cc1OCCCN1CCOCC1 [gefitinib]
COX7A1 expression (relative increase of COX7A1 transcript as marker of iCM) (COX7A1 transcript [1]): increased COX7A1 expression

CCN(CC)Cc1ccc2cc(COC(=O)Nc3ccc(C(=O)NO)cc3)ccc2c1 [givinostat]
COX7A1 expression (relative increase of COX7A1 transcript as marker of iCM) (COX7A1 transcript [1]): increased COX7A1 expression

O=C1c2c(O)ccc(O)c2C(=O)c2c(NCCNCCO)ccc(NCCNCCO)c21 [mitoxantrone]
COX7A1 expression (relative increase of COX7A1 transcript as marker of iCM) (COX7A1 transcript [1]): increased COX7A1 expression

C[C@@H]1C[C@H]2O[C@@H]2/C=C\C=C\C(=O)Cc2c(Cl)c(O)cc(O)c2C(=O)O1 [radicocol]
COX7A1 expression (relative reduction of COX7A1 transcript as marker of iTR) (COX7A1 transcript [2]): reduce COX7A1 expression

CN[C@@H]1C[C@H]2O[C@@](C)([C@@H]1OC)n1c3ccccc3c3c4c(c5c6ccccc6n2c5c31)C(=O)NC4 [staurosporine]
COX7A1 expression (relative increase of COX7A1 transcript as marker of iCM) (COX7A1 transcript [1]): increased COX7A1 expression

COc1cc([S+](C)[O-])ccc1-c1nc2ncccc2[nH]1 (stereo not shown) [sulmazole]
COX7A1 expression (relative increase of COX7A1 transcript as marker of iCM) (COX7A1 transcript [1]): increased COX7A1 expression

COc1cc([C@@H]2c3cc4c(cc3[C@@H](O[C@@H]3O[C@@H]5CO[C@@H](c6cccs6)O[C@H]5[C@H](O)[C@H]3O)[C@H]3COC(=O)[C@H]23)OCO4)cc(OC)c1O [teniposide]
COX7A1 expression (relative increase of COX7A1 transcript as marker of iCM) (COX7A1 transcript [1]): increased COX7A1 expression

CC(/C=C/C(=O)NO)=C\[C@@H](C)C(=O)c1ccc(N(C)C)cc1 [trichostatin-A]
COX7A1 expression (relative increase of COX7A1 transcript as marker of iCM) (COX7A1 transcript [1]): increased COX7A1 expression

CC(C)[C@]12O[C@H]1[C@@H]1O[C@]13[C@]1(O[C@H]1C[C@H]1C4=C(CC[C@@]13C)C(=O)OC4)[C@@H]2O [triptolide]
COX7A1 expression (relative increase of COX7A1 transcript as marker of iCM) (COX7A1 transcript [1]): increased COX7A1 expression

CCCC(CCC)C(=O)O [valproic acid]
regeneration (coverage of the denuded wounded zone) [3]: 25%
expression of COX7A1 [4]: reduced expression of COX7A1
expression of the fibrosis marker COL1A1 [4]: decreased expression of the fibrosis marker COL1A1

GFER: GFER (Augmenter of Liver Regeneration (ALR)), secreted protein iTR factor
regeneration (coverage of the denuded wounded zone) [3]: 28%
confluency achieved [5]: dose-dependent increase in confluency

calyculin
COX7A1 expression (relative increase of COX7A1 transcript as marker of iCM) (COX7A1 transcript [1]): increased COX7A1 expression

B1: AMH: anti-Mullerian hormone (AMH), secreted protein iTR factor (protein, UniProt P03971 452-560, looked up)
Muellerian-inhibiting factor: SAGATAADGPCALRELSVDLRAERSVLIPETYQANNCQGVCGWPQSDRNPRYGNHVVLLLKMQVRGAALARPPCCVPTAYAGKLLISLSEERISAHHVPNMVATECGCR
regeneration (coverage of the denuded wounded zone) [3]: 68%
